Reference: patent publication US20060160784A1, “Method for treating neurologic diseases” (priority 2005, published 2006)
Where “and” joins values, the source holds several entries; their conditions need not be identical. Equal entries are not always repeated.

Tested on: G93A transgenic mice
Test: Survival of G93A murine ALS model mice treated with MGd from symptom onset
Assay type: in vivo
Details: for survival interval (survival data used for plot B), individual animals: one value per mouse, unit days
Excerpt: (§1) Transgenic mice which overexpress the G93A human Cu, Zn superoxide dismutase (SOD 1) mutant develop motor paralysis similar to amyotrophic lateral sclerosis (ALS) in humans. At 90-100 days of age, these mice develop hindlimb weakness which rapidly progresses to total body paralysis within 2-3 weeks. Such trangenic mice were used to evaluate the survival and neuroprotective action of MGd with G93A transgenic mice. In particular, the purpose of this study was to test the effect of MGd (administered at a loading dose of 5 mg/kg and a maintenance dose of 2.5 mg/kg/day i.p. thereafter).
Studies involved the use of G93A overexpressing mice purchased directly from JAX Labs. Due to the high variability in age of onset (of motor neuron disease or MND) and total survival, a mouse colony was bred using the JAX Labs protocols. […] Therefore, littermate males were chosen to sire subsequent offspring and used to produce 10-12 litters of age-matched mice for drug studies. Typically 50-60 transgenic mice were obtained from 10-12 litters and, within these groups, the variability in age of onset and survival was quite low.
(§2) The procedure used involved monitoring the transgenic mice from several litters for onset of symptoms of motor neuron degeneration. At symptom onset (muscle weakness), mice were randomly assigned sequentially to either Control (no treatment) or Treatment (MGd-treated) groups. Mice were sacrificed when moribund (unable to assume upright posture), as required by animal welfare protocol. Motexafin gadolinium formulated at 2 mM (2.3 mg/ml) in 5% aqueous mannitol was used for this study and the study group involved 10-11 animals in each group, 21 animals total.
At the onset of symptoms MGd was administered via i.p injection at a loading dose of 5 mg/kg and a maintenance dose of 2.5 mg/kg/day i.p injection. was administered thereafter.
as §1, with “(SOD1)” for “(SOD 1)”, “a” for “a loading”, “1” for “5 mg/kg and a maintenance dose of 2.5”, “i.p.).” for “i.p. thereafter).”
as §2, with “9” for “10-11”, “18” for “21”
At the onset of symptoms MGd was administered via i.p injection at a dose of 1 mg/kg/day.
as §1, with “a” for “a loading dose of 5 mg/kg and a maintenance”, “mg/kg/q.2d. and 2.5 mg/kg/q.4d. i.p.).” for “mg/kg/day i.p. thereafter).”
as §2, with “Motexafin gadolinium formulated at 2 mM (2.3 mg/ml) in 5% aqueous mannitol was used for this study and the study group involved 10-11 animals in each group, 21 animals total.” left out

## CC(=O)[O-].CC(=O)[O-].CCc1c(CC)c2cc3nc(cnc4cc(OCCOCCOCCOC)c(OCCOCCOCCOC)cc4ncc4nc(cc1[n-]2)C(CCCO)=C4C)C(C)=C3CCCO.O.[Gd+3] [MGd, Motexafin Gadolinium]
Example 10, loading dose 5 mg/kg i.p., then 2.5 mg/kg/day i.p.
  extension of mean survival over untreated control mice: roughly 2.7 fold
Example 10, loading dose 5 mg/kg i.p., then 2.5 mg/kg/day i.p. from symptom onset
  survival interval (survival data used for plot B), individual animals: 53 days and 54 days and 26 days and 23 days and 21 days and 20 days and 46 days and 55 days and 36 days and 32 days
Example 10, loading dose 5 mg/kg i.p., then 2.5 mg/kg/day i.p., untreated control 13.4 days, p=4×10^−5
  mean survival: 36.6 days
Example 11, 1 mg/kg/day i.p.
  extension of mean survival over untreated control mice: roughly 2.5 fold
Example 11, 1 mg/kg/day i.p. from symptom onset, 1 mg/kg/day
  survival interval (survival data used for plot B), individual animals: 48 days and 41 days (2×) and 35 days (2×) and 49 days and 39 days and 52 days and 54 days
Example 11, 1 mg/kg/day i.p., untreated control 17.2 days, p<1×10^−5
  mean survival: 43.8 days
Example 12, 2.5 mg/kg/q.2d. i.p.
  extension of survival over untreated control mice: roughly 1.3 fold
Example 12, 2.5 mg/kg/q.2d. i.p. from symptom onset, 2.5 mg/kg
  survival interval (survival data used for plot B), individual animals: 20 days and 37 days and 35 days and 30 days and 28 days (2×)
Example 12, 2.5 mg/kg/q.2d. i.p., untreated control 23 days, p=0.069
  mean survival: 30 days
Example 12, 2.5 mg/kg/q.4d. i.p.
  extension of survival over untreated control mice: ~1.4 fold
Example 12, 2.5 mg/kg/q.4d. i.p. from symptom onset, 2.5 mg/kg
  survival interval (survival data used for plot B), individual animals: 30 days and 38 days and 20 days and 35 days and 26 days and 47 days
Example 12, 2.5 mg/kg/q.4d. i.p., untreated control 23 days, p=0.068
  mean survival: 33 days
